From patent US20160151451A1, “METHOD FOR GENERATING CARDIOMYOCYTES” (Korea Advanced Institute of Science and Technology (KAIST), priority 2014, published 2016) come the findings set out here.

Assay [1] deals with mouse ESC-derived Flk1^+ MPCs. Briefly: Differentiation of mouse ESC-derived Flk1^+ MPCs into cardiomyocytes in OP9 co-culture. It is filed as cell-based. The settings on record: for optimal dose of reagent, determined by total and relative number of differentiated cTnT^+ cells: dose optimization, FIGS. 2A-D. On the procedure: (§1) For induction of Flk1^+ MPCs, ESCs and iPSCs were cultured without LIF and plated on a 0.1% gelatin-coated dish at cell density 1-1.5×10^3 cells/cm^2 in the differentiation medium (alpha MEM, Invitrogen) with 10% fetal bovine serum (FBS) (Welgene), 2-mercaptoethanol (Invitrogen), L-glutamine (Invitrogen), and antibiotics (Invitrogen), which was changed every 2 days, for 4.5 days. At day 4.5, differentiated ESCs and iPSCs were harvested with 0.25% trypsin-EDTA and antigen recovery was performed in the differentiation medium for 30 min in an incubator. Then, cells were washed using phosphate buffered saline (PBS)/2% FBS and incubated with biotin-conjugated anti-mouse Flk1^+ antibody (clone AVAS 12a1, eBioscience) and […] MicroBeads (Miltenyi Biotec). Flk1^+ MPCs were sorted by AutoMACS Pro Separator (Miltenyi Biotec). For induction of cardioblasts and cardiomyocytes, sorted Flk1^+ MPCs were plated onto the MMC (AG scientific) treated confluent OP9 cells at a density of 5-10×10^3 cells/cm^2. For the induction of cardiomyocytes in a feeder free system, ESCs were plated on a 0.1% gelatin coated dish at cell density 3×10^3 cells/cm^2 without OP9 cells. Cells were cultured in the differentiation medium which was changed every 2 days.
CsA (a gift from Novartis Pharma, Korea), 6-Hydroxy-2,5,7,8-tetramethylchroman-2-carboxylic acid (Trolox, Sigma Aldrich), and EW7197 (Son et al., 2014) were dissolved in dimethyl sulfoxide (DMSO, Sigma Aldrich). Y27632 (Calbiochem) was dissolved in distilled water. Reagents were treated at the time of medium change. DMSO was treated as a control vehicle.
(§2) Differentiating Flk1^+ MPCs on OP9 cells were harvested with 0.25% trypsin-EDTA or dissociation buffer (Invitrogen). […] To analyze cTnT^+ cells, the cells were permeabilized using Cytofix/Cytoperm solution (BD Biosciences) for 15 min. […] After washing in 10% Perm/Wash buffer (BD Biosciences), the cells were incubated for 10 min with Cy5-conjugated anti-mouse IgG antibody (Invitrogen). The cells were washed with 10% Perm/Wash buffer (BD Biosciences) and then analyzed. In live cell analysis and sorting, dead cells were excluded using 4,6-diamidino-2-phenylindole (DAPI, Invitrogen) and OP9 cells were excluded from Flk1^+ MPCs by gating in flow cytometry. The differentiated cardiomyocytes were sorted using αMHC-GFP. Analyses and sorting were performed by FACS Aria II (Beckton Dickinson). Data were analyzed using FlowJo Version 7.5.4 software (TreeStar).
The cells were fixed with 2% paraformaldehyde (PFA) and blocked with 5% goat (or donkey) serum in PBST (0.1% Tween 20 in PBS) for 1 hr at room temperature (RT). […] After being washed with PBST 3 times, the cells were incubated for 2 hr at room temperature with the following secondary antibodies: Cy3-conjugated anti-mouse IgG antibody (Invitrogen), FITC-conjugated anti-rat IgG (Jackson ImmunoResearch), and Cy3-conjugated anti-rabbit IgG (Jackson ImmunoResearch) antibodies. After being stained with the antibodies, the cells were mounted in fluorescent mounting medium (DAKO). Nuclei were stained with 4,6-diamidino-2-phenylindole (DAPI, Invitrogen). Immunofluorescence staining of mitochondria was performed using MitoTracker Orange CMTMRos probe (Invitrogen) and cells were incubated with probe for 30 to 60 min at 37° C. in serum free medium before fixation. Immunocytochemistry stained images were obtained using an LSM510 confocal fluorescence microscope (Carl Zeiss). Live images of cardiomyocyte differentiation process and αMHC GFP^+ cardiomyocytes were obtained using Axiovert 200M microscope (Carl Zeiss) equipped with AxioCam MRm (Carl Zeiss). Images were analyzed using Image J software (http://imagej.nih.gov/ij/, 1.47V, NIH, USA). Phase-contrast images including beating cardiomyocytes were obtained using an Infinity X digital camera and DpxView LE software (DeltaPix).

The subject of assay [2] is mouse ESC-derived Flk1^+ MPCs. The assay can be described thus: Induction of PDGFRα^+Flk1^− cardioblasts (PCBs) from mouse ESC-derived Flk1^+ MPCs. It is filed as cell-based. The settings on record: each reagent of CsAYTE alone; FIGS. 11A, 11B. As for the experimental part:
as §1
Differentiating Flk1^+ MPCs on OP9 cells were harvested with 0.25% trypsin-EDTA or dissociation buffer (Invitrogen). […] To analyze cTnT^+ cells, the cells were permeabilized using Cytofix/Cytoperm solution (BD Biosciences) for 15 min. […] The cells were washed with 10% Perm/Wash buffer (BD Biosciences) and then analyzed. […] Data were analyzed using FlowJo Version 7.5.4 software (TreeStar).
The cells were fixed with 2% paraformaldehyde (PFA) and blocked with 5% goat (or donkey) serum in PBST (0.1% Tween 20 in PBS) for 1 hr at room temperature (RT). […] Immunocytochemistry stained images were obtained using an LSM510 confocal fluorescence microscope (Carl Zeiss). […] Images were analyzed using Image J software (http://imagej.nih.gov/ij/, 1.47V, NIH, USA). […]

In another assay the test system is PCBs. Briefly: PCB-derived cardiomyocyte differentiation with indicated reagents after PCB induction, OP9 co-culture. The assay is classed as cell-based, mouse. The settings on record: FIGS. 14B, 14C. As for the experimental part: as §2
In assay [3] the test system is voltage-gated Na^+ channels. The assay is classed as cell-based, mouse.
In a further assay the test system is ROCK. The assay is classed as cell-based. From the text: The meaning of “Rho-associated protein kinase (ROCK) inhibitor” is well known in the art. An assay for determining a ROCK suppressor or ROCK inhibitor can include for example the following method. ROCKs were discovered as the first effectors of Rho and they induce the formation of stress fibers and focal adhesions by phosphorylating MLC (myosin light chain). Therefore, an assay for determining ROCK suppression is confirming MLC phosphorylation inhibition such as by Western blotting.

The test system of assay [4] is delayed rectifying K^+ channels.
The next assay relates to T-type Ca^2+ channels. Briefly: Voltage-clamp recording of T-type Ca^2+ current (ICaT) in M^+CMs. The assay is classed as cell-based, mouse. The note with it: 1 μM.
Setting [5] is: in combination with CsA, data not shown.

Where a name gives a salt, the structure may show the parent alone. Read-outs that look alike come from different tables or passages of the source.

On to `NC(=O)c1ncn([C@@H]2O[C@H](CO)[C@@H](O)[C@H]2O)c1N` [AICAR], for which the “effect on Flk1^+ MPC differentiation into cTnT^+ cells” value in assay [1] is “rather inhibited or did not affect”.

In the case of `Cc1cccc(-c2[nH]c(CNc3ccccc3F)nc2-c2ccc3ncnn3c2)n1` [EW7197, N-[[4-([1,2,4]triazolo[1,5-a]pyridin-6-yl)-5-(6-methylpyridin-2-yl)-1H-imidazol-2-yl]methyl]-2-fluoroaniline], the “Flk1^+ MPC differentiation into PCBs by each reagent” value (from here on “Flk1^+ MPC differentiation into PCBs”) in assay [2] was found to be 45.3%. In addition, the “optimal dose of reagent, determined by total and relative number of differentiated cTnT^+ cells” value in assay [1] worked out at 1 µg/mL. The “effect of omission of the reagent from CsAYTE on population of cTnT^+ and αMHC-GFP^+ cells” value in the assay with PCBs is given as “slightly increased”.

Turning to `Cc1c[nH]c(-c2cnc(NCCNc3ccc(C#N)cn3)nc2-c2ccc(Cl)cc2Cl)n1` [CHIR99021], the “effect on Flk1^+ MPC differentiation into cTnT^+ cells” value in assay [1] (setting [5]) is on record as “rather inhibited or did not affect”.

As for `C[C@H](NC(=O)Cc1cc(F)cc(F)c1)C(=O)N[C@H](C(=O)OC(C)(C)C)c1ccccc1` [DAPT], in assay [1] (setting [5]), the “effect on Flk1^+ MPC differentiation into cTnT^+ cells” value was “rather inhibited or did not affect”.

`Cn1c2ccccc2c2c3c(c4c5ccccc5n(CCC#N)c4c21)CNC3=O` [Go6976]: the “effect on Flk1^+ MPC differentiation into cTnT^+ cells” value in assay [1] (setting [5]) is reported as “rather inhibited or did not affect”.

In the case of `NC1=N[C@H](O)[C@H]2[C@H]3O[C@]4(O)O[C@@H]([C@@H](O)[C@@]2(N1)[C@@H]4O)[C@]3(O)CO` [TTX, tetrodotoxin], the “voltage gated Na^+ current (INa)” value in assay [3] was “inhibited”.

Turning to `C[C@@H](N)[C@H]1CC[C@H](C(=O)Nc2ccncc2)CC1` [Y27632, [(+)-(R)-trans-4-(1-aminoethyl)-N-(4-pyridyl)cyclohexanecarboxamidedihydrochloride]], the “Flk1^+ MPC differentiation into PCBs” value in assay [2] turned out to be 22.0%. Further, the “optimal dose of reagent, determined by total and relative number of differentiated cTnT^+ cells” value in assay [1] was 10 µM. Further, the “MLC phosphorylation in Flk1^+ MPCs during differentiation” value in the assay with ROCK was “inhibits”.

Consider `CC[N+](CC)(CC)CC` [TEA, tetraethylammonium], for which the “delayed rectifier K^+ current (IK)” value in assay [4] is recorded as “inhibited”.

Regarding `CCC(=O)NC[C@H](Cc1ccc(OCCc2nc(-c3ccccc3)oc2C)cc1)N/C(C)=C\C(=O)c1ccc(C(F)(F)F)cc1` [GW6471], the “effect on Flk1^+ MPC differentiation into cTnT^+ cells” value in assay [1] (setting [5]) was “rather inhibited or did not affect”.

On to `O=S(=O)(c1cccc2c(I)cccc12)N1CCCNCC1` [ML7], for which, in assay [1] (setting [5]), the “effect on Flk1^+ MPC differentiation into cTnT^+ cells” value is “rather inhibited or did not affect”.

With `c1cc(-c2cnn3cc(-c4ccc(OCCN5CCCCC5)cc4)cnc23)ccn1` [Compound C], the “effect on Flk1^+ MPC differentiation into cTnT^+ cells” value in assay [1] (setting [5]) is recorded as “rather inhibited or did not affect”.

For the compound `Cc1c(C)c2c(c(C)c1O)CCC(C)(C(=O)O)O2` (stereo not drawn) [Trolox, 6-hydroxy-2,5,7,8-tetramethylchroman-2-carboxylic acid], the “Flk1^+ MPC differentiation into PCBs” value in assay [2] amounted to 19.3%. Also, in assay [1], the “optimal dose of reagent, determined by total and relative number of differentiated cTnT^+ cells” value was 400 µM.

Consider `COCC(=O)O[C@]1(CCN(C)CCCc2nc3ccccc3[nH]2)CCc2cc(F)ccc2[C@@H]1C(C)C` [mibefradil], for which, in the assay on T-type Ca^2+ channels, the “T-type Ca^2+ currents (ICaT)” value was “inhibited”.

Regarding `CCCCCCOC(=O)[C@]1(O)C[C@@H]2O[C@@]1(C)n1c3ccccc3c3c4c(c5c6ccccc6n2c5c31)C(=O)NC4` [KT5720], in assay [1] (setting [5]), the “effect on Flk1^+ MPC differentiation into cTnT^+ cells” value is on record as “rather inhibited or did not affect”.

`COc1cccc(-c2cc(=O)c3ccccc3o2)c1N` [PD98059]: in assay [1] (setting [5]), the “effect on Flk1^+ MPC differentiation into cTnT^+ cells” value is “rather inhibited or did not affect”.

As to `COC(=O)[C@@]1(OC)C[C@H]2O[C@]1(C)n1c3ccccc3c3c4c(c5c6ccccc6n2c5c31)C(=O)N(C)C4` [KT5823], the “effect on Flk1^+ MPC differentiation into cTnT^+ cells” value in assay [1] (setting [5]) is listed as “rather inhibited or did not affect”.
